Reference: patent EP0370382A2, “Urea dipeptide derivatives with a renin-inhibiting activity, process to produce them, compositions containing them and their use” (HOECHST AKTIENGESELLSCHAFT, priority 1988, dated 1990)
pIC50: −log10 of the molar value.

Target: T1, Renin (Homo sapiens, UniProt P00797)
T1 construct: Das Blut wird von freiwilligen Probanden gewonnen; from tissue; host or cells: human blood plasma (EDTA) from volunteers
T1 sequence (P00797 67-406): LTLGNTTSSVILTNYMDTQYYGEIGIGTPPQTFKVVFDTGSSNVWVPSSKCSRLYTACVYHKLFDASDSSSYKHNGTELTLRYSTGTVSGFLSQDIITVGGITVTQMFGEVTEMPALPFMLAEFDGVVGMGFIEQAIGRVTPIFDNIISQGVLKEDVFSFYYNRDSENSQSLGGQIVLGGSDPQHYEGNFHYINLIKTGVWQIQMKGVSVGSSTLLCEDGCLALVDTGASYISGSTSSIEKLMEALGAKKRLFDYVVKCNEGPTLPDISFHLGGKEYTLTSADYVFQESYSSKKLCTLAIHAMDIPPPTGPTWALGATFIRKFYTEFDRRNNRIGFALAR
Experiment: Renin inhibition in human plasma (angiotensin I release, radioimmunoassay)
Assay type: biochemical
Conditions: 37°C, 1 h incubation, phosphate buffer pH 7.4, max. 1 % DMSO, read from % residual plasma renin activity vs. concentration, read-out: IC₅₀
Protocol: Die Wirksamkeit von Renin-Hemmern kann durch in-vitro-Tests überprüft werden. Hierbei wird die Verminderung der Bildung von Angiotensin I in verschiedenen Systemen (Humanplasma, gereinigtes Humanrenin) gemessen.
Z.B. Humanplasma, welches sowohl Renin als auch Angiotensinogen enthält, wird bei 37°C mit der zu testenden Verbindung inkubiert. Dabei wird aus Angiotensinogen unter der Einwirkung von Renin Angiotensin I freigesetzt, das anschließend mit einem handelsüblichen Radioimmunoassay gemessen werden kann. Diese Angiotensin-Freisetzung wird durch Renin-Inhibitoren gehemmt.
Das Blut wird von freiwilligen Probanden gewonnen (ca. 0,5 l pro Person; Bluko-Entnahmegerät der Fa. ASID Bonz und Sohn, Unterschleißheim) und in teilweise evakuierten Flaschen unter Eiskühlung aufgefangen. Die Gerinnung wird durch Zugabe von EDTA (Endkonzentration 10 mM) verhindert. Nach dem Zentrifugieren (Rotor HS 4 (Sorvall), 3 500 Upm, 0-4°C, 15 min; wiederholen, falls erforderlich) wird das Plasma vorsichtig abpipettiert und in geeigneten Portionen bei -30°C eingefroren. Für den Test werden nur Plasmen mit ausreichend hoher Reninaktivität verwendet. Plasmen mit niedriger Reninaktivität werden durch eine Kältebehandlung (-4°C, 3 Tage) aktiviert (Prorenin → Renin).
Angiotensin I wird mit dem Renin-Maia®-Kit (Serono Diagnostics S.A., Coinsins, Schweiz) bestimmt. Die Inkubation des Plasmas wird nach der dort angegebenen Anleitung durchgeführt: Inkubationsansatz: 1000 µl Plasma (bei 0-4°C aufgetaut) 100 µl Phosphatpuffer (pH 7,4) Zusatz von 10⁻⁴ M Ramiprilat) 10 µl PMSF-Lösung 10 µl 0,1 % Genapol PFIC 12 µl DMSO bzw. Testpräparat
Die Testpräparate werden i.a. 10⁻² M in 100 % Dimethylsulfoxid (DMSO) gelöst und mit DMSO entsprechend verdünnt; der Inkubationsansatz enthält max. 1 % DMSO.
Die Ansätze werden in Eis gemischt und für 1 Stunde zur Inkubation in ein Wasserbad (37°C) gestellt. Aus einem zusätzlichen Ansatz ohne Inhibitor werden ohne weitere Inkubation insgesamt 6 Proben (jeweils 100 µl) zur Bestimmung des Ausgangs-Angiotensin I-Gehaltes des verwendeten Plasmas entnommen.
Die Konzentrationen der Testpräparate werden so gewählt, daß etwa der Bereich von 10-90 % Enzymhemmung abgedeckt ist (mindestens fünf Konzentrationen). Am Ende der Inkubationszeit werden aus jedem Ansatz drei 100 µl-Proben in vorgekühlten Eppendorf-Gefäßen auf Trockeneis eingefroren und bei ca. -25°C für die Angiotensin I-Bestimmung aufbewahrt (Mittelwert aus drei Einzelproben).
Es wird exakt der Gebrauchsanweisung des RIA-Kits (Renin-Maia®-Kit, Serono Diagnostics S.A., Coinsins, Schweiz) befolgt.
Die Eichkurve umfaßt den Bereich von 0,2 bis 25,0 ng Angiotensin I pro ml. Der Basis-Angiotensin I-Gehalt des Plasmas wird von allen Meßwerten abgezogen. Die Plasma-Renin-Aktivität (PRA) wird als ng Ang I/ml x Stunde angegeben. PRA-Werte in Gegenwart der Testsubstanzen werden auf einen Ansatz ohne Inhibitor (= 100 %) bezogen und als % Restaktivität angegeben. Aus der Auftragung von % Restaktivität gegen die Konzentration (M) des Testpräparates (logarithmische Skala) wird der IC₅₀-Wert abgelesen.

`CCC[C@H](NC(=O)[C@H](Cc1ccccc1)NC(=O)NC(C)(C)C)C(=O)N[C@@H](CC1CCCCC1)[C@H](O)CCCc1ccccn1` [Beispiel 9, 1-Cyclohexyl-6-(2-pyridyl)-2S-(N-(tert.butylaminocarbonyl-Phe-Nva)-amino)-3R-hexanol] gave a pIC50 of 5.19.
`CCC[C@H](NC(=O)[C@H](Cc1ccccc1)NC(=O)NCC(C)(C)N)C(=O)N[C@@H](CC1CCCCC1)[C@@H](O)CCCc1ccccn1` [Beispiel 13, 1-Cyclohexyl-6-(2-pyridyl)-2S-(N-(2-amino-2-methylpropylaminocarbonyl-Phe-Nva)-amino)-3S-hexanol] showed a pIC50 of 6.47.
`CCC[C@H](NC(=O)[C@H](Cc1ccccc1)NC(=O)NC(C)(C)C)C(=O)N[C@@H](CC1CCCCC1)[C@@H](O)CCCc1ccccn1` [Beispiel 6, 1-Cyclohexyl-6-(2-pyridyl)-2S-(N-(tert.butylaminocarbonyl-Phe-Nva)-amino)-3S-hexanol] showed a pIC50 of 6.40.
In the case of `CCNC(=O)N[C@@H](Cc1ccccc1)C(=O)N[C@@H](Cc1c[nH]cn1)C(=O)N[C@@H](CC1CCCCC1)[C@@H](O)CCCc1ccccn1` [Beispiel 1, 1-Cyclohexyl-6-(2-pyridyl)-2S-(N-(ethylaminocarbonyl-Phe-His)-amino)-3S-hexanol], the pIC50 was 5.70.
`CCC[C@H](NC(=O)[C@H](Cc1ccccc1)NC(=O)NCC)C(=O)N[C@@H](CC1CCCCC1)[C@@H](O)CCCc1ccccn1` [Beispiel 4, 1-Cyclohexyl-6-(2-pyridyl)-2S-(N-(ethylaminocarbonyl-Phe-Nva)-amino)-3S-hexanol] was tested, and the pIC50 was 6.42.
`CCC[C@H](NC(=O)[C@H](Cc1ccccc1)NC(=O)NC(C)C)C(=O)N[C@@H](CC1CCCCC1)[C@H](O)CCCc1ccccn1` [Beispiel 12, 1-Cyclohexyl-6-(2-pyridyl)-2S-(N-(isopropylaminocarbonyl-Phe-Nva)-amino)-3R-hexanol] gave a pIC50 of 5.26.
For `CCNC(=O)N[C@@H](Cc1ccccc1)C(=O)N[C@@H](Cc1c[nH]cn1)C(=O)N[C@@H](CC1CCCCC1)[C@H](O)CCCc1ccccn1` [Beispiel 11, 1-Cyclohexyl-6-(2-pyridyl)-2S-(N-(ethylaminocarbonyl-Phe-His)-amino)-3R-hexanol], the pIC50 was 6.05.
`CC(C)(C)NC(=O)N[C@@H](Cc1ccccc1)C(=O)N[C@@H](Cc1c[nH]cn1)C(=O)N[C@@H](CC1CCCCC1)[C@@H](O)CCCc1ccccn1` [Beispiel 5] showed a pIC50 of 6.00.
For `CC(C)(C)NC(=O)N[C@@H](Cc1ccccc1)C(=O)N[C@@H](Cc1c[nH]cn1)C(=O)N[C@@H](CC1CCCCC1)[C@H](O)CCCc1ccccn1` [Beispiel 10, 1-Cyclohexyl-6-(2-pyridyl)-2S-(N-(tert.butylaminocarbonyl-Phe-His)-amino)-3R-hexanol], the pIC50 was < 6.00.
In the case of `CC(C)(C)NC(=O)N[C@@H](Cc1ccccc1)C(=O)N[C@@H](CC(N)=O)C(=O)N[C@@H](CC1CCCCC1)[C@@H](O)CCCc1ccccn1` [Beispiel 14], the pIC50 was 5.10.
Work on `CCC[C@H](NC(=O)[C@H](Cc1cccs1)NC(=O)NC(C)(C)C)C(=O)N[C@@H](CC1CCCCC1)[C@@H](O)CCCc1ccccn1` [Beispiel 7, 1-Cyclohexyl-6-(2-pyridyl)-2S-(N-(tert.butylaminocarbonyl-Thi-Nva)-amino)-3S-hexanol] yielded a pIC50 of 6.59.
With `CCC[C@H](NC(=O)[C@H](Cc1ccccc1)NC(=O)NCC(C)(C)C)C(=O)N[C@@H](CC1CCCCC1)[C@@H](O)CCCc1ccccn1` [Beispiel 3, 1-Cyclohexyl-6-(2-pyridyl)-2S-(N-(2,2-dimethylpropylaminocarbonyl-Phe-Nva)-amino)-3S-hexanol] the pIC50 was 6.05.
For `CCC[C@H](NC(=O)[C@H](Cc1ccccc1)NC(=O)NC(C)C)C(=O)N[C@@H](CC1CCCCC1)[C@@H](O)CCCc1ccccn1` [Beispiel 2, 1-Cyclohexyl-6-(2-pyridyl)-2S-(N-(isopropylaminocarbonyl-Phe-Nva)-amino)-3S-hexanol], the pIC50 was 6.21.
`CCC[C@H](NC(=O)[C@H](Cc1ccc(OC)cc1)NC(=O)NC(C)(C)C)C(=O)N[C@@H](CC1CCCCC1)[C@@H](O)CCCc1ccccn1` [Beispiel 8] was tested, and the pIC50 was < 5.00.
`CCC[C@H](NC(=O)[C@H](Cc1ccccc1)NC(=O)NC(C)(C)C(=O)O)C(=O)N[C@@H](CC1CCCCC1)[C@@H](O)CCCc1ccccn1` [Beispiel 29, 1-Cyclohexyl-6-(2-pyridyl)-2S-[N-[(1-carboxy-1-methylethylaminocarbonyl)-Phe-Nva]-amino]-3S-hexanol] was tested, and the pIC50 was 6.19.
